We go through 19 compounds from patent publication US6284774A, “4-Benzyl piperidine alkylsulfoxide heterocycles and their use as subtype-selective NMDA receptor antagonists” (priority 2000, dated 2001).

The target in one assay is T1, NR1A /2B (Rattus norvegicus, UniProt P35439+Q00960).
T1 construct: expressed in transfected cells; host or cells: Xenopus laevis oocytes (cRNA micro-injection)
Briefly: Electrophysiological assay at NMDA receptor subunits NR1A/2B expressed in Xenopus oocytes. The format is cell-based. Particulars: rat clones in Xenopus oocytes, currents activated by glutamate (100 μM) and glycine (1-100 μM). The source says: (§1) Many of the properties of native NMDA receptors are seen in recombinant homomeric NR1 receptors expressed in Xenopus oocytes. These properties are altered by the NR2 subunits. Recombinant NMDA receptors expressed in Xenopus oocytes have been studied by voltage-clamp recording, as has developmental and regional expression of the mRNAs encoding NMDA receptor subunits. Electrophysiological assays were utilized to characterize the actions of compounds at NMDA receptors expressed in Xenopus oocytes.
(§2) Electrophysiological Assays at NMDA receptor subunits.
(§3) cDNA clones encoding the NR1A, NR2A, NR2B, and NR2C rat NMDA receptor subtypes were used. […] The clones were transformed into appropriate host bacteria and plasmid preparations were made with conventional DNA purification techniques. A sample of each clone was linearized by restriction enzyme digestion and cRNA was synthesized with T3 RNA polymerase. The cRNA was diluted to 400 ng/μl and stored in 1 μl aliquots at -80° C. until injection.
(§4) The Xenopus Oocyte Expression System
(§5) Follicle-enclosed oocytes were micro-injected with 1:1 mixtures of NR1A:NR2A, 2B or 2C; infecting 1-10 ng of RNA encoding each receptor subunit. NR1A encoding RNA was injected alone at ~20 ng. Oocytes were stored in Barth's medium containing (in mM):NaCl, 88; KCl, 1; CaCl2, 0.41; Ca(NO3)2, 0.33; MgSo4, 0.82 NaHCO3, 2.4; HEPES 5, pH 7.4, with 0.11 mg/ml gentamicin sulphate. While oocytes were still surrounded by enveloping ovarian tissues the Barth's medium was supplemented with 0.1% bovine serum.
(§6) Electrical recordings were made using a conventional two-electrode voltage clamp (Dagan TEV-200) over periods ranging between 3-21 days following injection. […] Drugs were applied by bath perfusion. Using oocytes expressing different subunit combinations of NMDA receptor, NMDA currents were activated by co-application of glutamate (100 μM) and glycine (1-100 μM). Inhibitory potency of the novel antagonists was assessed on responses elicited by fixed concentrations of glutamate and glycine, by measuring reductions in current induced by progressively increasing concentrations of antagonist. Concentration-inhibition curves were fit with equation 1.
(§7) in which Icontrol is the current evoked by agonists alone, pIC50 =-log IC50, IC50 is the concentration of antagonist that produces half maximal inhibition, and n is the slope factor. […] For incomplete curves analysis by fitting was unreliable and IC50 values were calculated by simple regression over linear portions of the curves (Origin: Microcal Software).

The test system of assay [1] is 6-Hydroxydopamine-lesioned rats. Description: 6-OHDA Rat Assay: potentiation of contraversive rotation induced by L-DOPA methyl ester. The assay is classed as in vivo, Sprague-Dawley rats. Particulars: po; L-DOPA methyl ester 10 mg/kg SC; total contraversive rotations over 6 hour vs L-DOPA only. As for the experimental part:
Adult male Sprague-Dawley rats were anesthetized with chloral hydrate and unilateral lesions of the nigrostriatal dopamine system were accomplished by infusion of 8 μg of 6-hydroxydopamine HBr (6-OHDA) into the right medial forebrain bundle. […] A minimum of 3 weeks after surgery, the rotational behavior induced by apomorphine HCL 50 μg/kg subcutaneously (SC) was assessed. […] Rotational behavior was measured using an automatic rotometer system (Rotorat Rotational Activity System, MED Associates, Georgia, Vt.). Anti-parkinsonian activity was assessed as the ability of the compound to potentiate the contraversive rotation induced by L-DOPA methyl ester, 10 mg/kg SC, over a 6 hour period. Experiments were conducted using a crossover paradigm where each rat received either a vehicle plus L-DOPA, or the test compound plus L-DOPA, in randomized order. Rats were tested at 7 day intervals. In experiments in which the compound was tested orally, rats were food deprived for 16 hours. Statistical analysis between treatment groups were performed using a paired t-test.

The target of the next assay is T2, NR1A /2C (Rattus norvegicus, UniProt P35439+Q00961).
T2 construct: expressed in transfected cells; host or cells: Xenopus laevis oocytes (cRNA micro-injection)
Description: Electrophysiological assay at NMDA receptor subunits NR1A/2C expressed in Xenopus oocytes. The format is cell-based. Conditions: rat clones in Xenopus oocytes, currents activated by glutamate (100 μM) and glycine (1-100 μM).
Excerpt: as §1, §2, §3, §4, §5, §6, §7

Another assay addresses T3, NRIA /2A (Rattus norvegicus, UniProt P35439+Q00959).
T3 construct: expressed in transfected cells; host or cells: Xenopus laevis oocytes (cRNA micro-injection)
Description: Electrophysiological assay at NMDA receptor subunits NR1A/2A expressed in Xenopus oocytes. The format is cell-based. Particulars: rat clones in Xenopus oocytes, currents activated by glutamate (100 μM) and glycine (1-100 μM).
Excerpt: as §1, §2, §3, §4, §5, §6, §7

The term IC50 denotes the point on the concentration scale where inhibition reaches its midpoint.

T3 sequence (Q00959 23-1464, other chains not shown): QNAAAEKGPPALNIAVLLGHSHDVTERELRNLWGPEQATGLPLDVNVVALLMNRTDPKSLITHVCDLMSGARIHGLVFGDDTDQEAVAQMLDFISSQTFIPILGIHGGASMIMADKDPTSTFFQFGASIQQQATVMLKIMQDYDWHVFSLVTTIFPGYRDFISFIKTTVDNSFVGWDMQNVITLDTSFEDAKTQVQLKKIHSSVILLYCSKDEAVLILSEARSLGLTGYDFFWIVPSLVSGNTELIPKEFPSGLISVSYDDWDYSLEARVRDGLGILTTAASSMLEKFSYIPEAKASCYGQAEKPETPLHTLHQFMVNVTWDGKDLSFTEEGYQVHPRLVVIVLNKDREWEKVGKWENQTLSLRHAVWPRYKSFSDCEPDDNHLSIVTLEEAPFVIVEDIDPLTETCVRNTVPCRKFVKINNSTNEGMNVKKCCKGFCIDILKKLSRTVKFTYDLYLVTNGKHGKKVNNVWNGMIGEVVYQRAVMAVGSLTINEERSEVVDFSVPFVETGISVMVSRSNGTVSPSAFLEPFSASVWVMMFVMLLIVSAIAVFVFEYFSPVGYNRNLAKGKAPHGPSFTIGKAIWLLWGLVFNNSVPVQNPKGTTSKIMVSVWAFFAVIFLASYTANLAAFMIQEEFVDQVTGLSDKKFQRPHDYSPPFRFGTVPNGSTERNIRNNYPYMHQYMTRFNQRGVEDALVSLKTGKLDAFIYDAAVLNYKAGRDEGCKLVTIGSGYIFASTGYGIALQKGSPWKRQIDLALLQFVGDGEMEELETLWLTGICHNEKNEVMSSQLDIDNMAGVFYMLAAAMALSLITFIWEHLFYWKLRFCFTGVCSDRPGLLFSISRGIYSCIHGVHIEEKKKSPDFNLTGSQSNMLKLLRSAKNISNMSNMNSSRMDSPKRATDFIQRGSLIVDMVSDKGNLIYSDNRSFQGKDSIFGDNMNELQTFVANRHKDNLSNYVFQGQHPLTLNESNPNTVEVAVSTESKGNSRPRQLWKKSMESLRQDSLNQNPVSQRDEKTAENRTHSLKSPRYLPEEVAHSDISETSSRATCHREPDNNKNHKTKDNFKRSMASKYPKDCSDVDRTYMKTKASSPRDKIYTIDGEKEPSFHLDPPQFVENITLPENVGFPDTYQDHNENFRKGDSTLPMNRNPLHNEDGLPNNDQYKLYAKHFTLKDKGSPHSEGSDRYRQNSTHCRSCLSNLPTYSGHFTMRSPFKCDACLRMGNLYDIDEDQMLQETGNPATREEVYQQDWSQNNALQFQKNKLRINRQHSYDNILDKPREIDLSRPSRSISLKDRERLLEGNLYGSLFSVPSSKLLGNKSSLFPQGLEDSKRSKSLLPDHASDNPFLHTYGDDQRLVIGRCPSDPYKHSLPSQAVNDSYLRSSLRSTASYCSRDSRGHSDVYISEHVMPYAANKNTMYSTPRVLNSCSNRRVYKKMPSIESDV
T1 sequence (Q00960 27-1482, other chains not shown): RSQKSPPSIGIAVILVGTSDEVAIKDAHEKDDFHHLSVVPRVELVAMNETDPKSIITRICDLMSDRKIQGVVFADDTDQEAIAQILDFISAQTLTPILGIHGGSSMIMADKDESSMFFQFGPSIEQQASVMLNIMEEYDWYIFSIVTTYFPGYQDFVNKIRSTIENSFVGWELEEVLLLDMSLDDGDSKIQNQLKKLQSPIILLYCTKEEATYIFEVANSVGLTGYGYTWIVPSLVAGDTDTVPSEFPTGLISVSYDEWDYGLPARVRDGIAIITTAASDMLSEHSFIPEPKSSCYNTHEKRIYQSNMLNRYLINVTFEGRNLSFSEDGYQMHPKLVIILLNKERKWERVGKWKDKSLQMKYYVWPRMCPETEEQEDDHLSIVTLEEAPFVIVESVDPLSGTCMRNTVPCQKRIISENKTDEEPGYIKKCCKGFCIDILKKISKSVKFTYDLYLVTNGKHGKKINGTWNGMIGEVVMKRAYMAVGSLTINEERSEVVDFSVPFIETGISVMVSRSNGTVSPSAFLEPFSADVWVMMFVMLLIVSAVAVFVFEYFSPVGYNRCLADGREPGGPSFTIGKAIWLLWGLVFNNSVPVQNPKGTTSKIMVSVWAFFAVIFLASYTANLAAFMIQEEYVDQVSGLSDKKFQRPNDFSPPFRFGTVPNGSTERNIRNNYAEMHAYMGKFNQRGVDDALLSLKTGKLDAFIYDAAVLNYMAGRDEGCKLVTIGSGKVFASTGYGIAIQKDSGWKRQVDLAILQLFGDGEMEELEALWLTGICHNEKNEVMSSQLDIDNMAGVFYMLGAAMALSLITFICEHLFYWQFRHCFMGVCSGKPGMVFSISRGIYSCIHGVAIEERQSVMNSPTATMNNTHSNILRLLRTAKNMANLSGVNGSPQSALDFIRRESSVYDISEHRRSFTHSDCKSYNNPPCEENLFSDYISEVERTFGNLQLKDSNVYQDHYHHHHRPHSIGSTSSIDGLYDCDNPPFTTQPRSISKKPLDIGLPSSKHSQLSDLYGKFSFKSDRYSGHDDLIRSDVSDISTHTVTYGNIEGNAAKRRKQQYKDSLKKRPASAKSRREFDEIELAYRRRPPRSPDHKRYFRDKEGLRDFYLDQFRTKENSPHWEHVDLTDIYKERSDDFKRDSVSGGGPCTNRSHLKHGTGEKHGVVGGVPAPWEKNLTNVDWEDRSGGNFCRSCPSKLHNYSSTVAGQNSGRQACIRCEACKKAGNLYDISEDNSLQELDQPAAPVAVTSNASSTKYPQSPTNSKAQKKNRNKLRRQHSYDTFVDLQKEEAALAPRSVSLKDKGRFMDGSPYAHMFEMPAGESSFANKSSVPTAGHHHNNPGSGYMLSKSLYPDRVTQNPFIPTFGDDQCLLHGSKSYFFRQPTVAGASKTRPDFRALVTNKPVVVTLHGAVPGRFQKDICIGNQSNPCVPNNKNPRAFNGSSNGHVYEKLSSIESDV
T2 sequence (Q00961 20-1237, other chains not shown): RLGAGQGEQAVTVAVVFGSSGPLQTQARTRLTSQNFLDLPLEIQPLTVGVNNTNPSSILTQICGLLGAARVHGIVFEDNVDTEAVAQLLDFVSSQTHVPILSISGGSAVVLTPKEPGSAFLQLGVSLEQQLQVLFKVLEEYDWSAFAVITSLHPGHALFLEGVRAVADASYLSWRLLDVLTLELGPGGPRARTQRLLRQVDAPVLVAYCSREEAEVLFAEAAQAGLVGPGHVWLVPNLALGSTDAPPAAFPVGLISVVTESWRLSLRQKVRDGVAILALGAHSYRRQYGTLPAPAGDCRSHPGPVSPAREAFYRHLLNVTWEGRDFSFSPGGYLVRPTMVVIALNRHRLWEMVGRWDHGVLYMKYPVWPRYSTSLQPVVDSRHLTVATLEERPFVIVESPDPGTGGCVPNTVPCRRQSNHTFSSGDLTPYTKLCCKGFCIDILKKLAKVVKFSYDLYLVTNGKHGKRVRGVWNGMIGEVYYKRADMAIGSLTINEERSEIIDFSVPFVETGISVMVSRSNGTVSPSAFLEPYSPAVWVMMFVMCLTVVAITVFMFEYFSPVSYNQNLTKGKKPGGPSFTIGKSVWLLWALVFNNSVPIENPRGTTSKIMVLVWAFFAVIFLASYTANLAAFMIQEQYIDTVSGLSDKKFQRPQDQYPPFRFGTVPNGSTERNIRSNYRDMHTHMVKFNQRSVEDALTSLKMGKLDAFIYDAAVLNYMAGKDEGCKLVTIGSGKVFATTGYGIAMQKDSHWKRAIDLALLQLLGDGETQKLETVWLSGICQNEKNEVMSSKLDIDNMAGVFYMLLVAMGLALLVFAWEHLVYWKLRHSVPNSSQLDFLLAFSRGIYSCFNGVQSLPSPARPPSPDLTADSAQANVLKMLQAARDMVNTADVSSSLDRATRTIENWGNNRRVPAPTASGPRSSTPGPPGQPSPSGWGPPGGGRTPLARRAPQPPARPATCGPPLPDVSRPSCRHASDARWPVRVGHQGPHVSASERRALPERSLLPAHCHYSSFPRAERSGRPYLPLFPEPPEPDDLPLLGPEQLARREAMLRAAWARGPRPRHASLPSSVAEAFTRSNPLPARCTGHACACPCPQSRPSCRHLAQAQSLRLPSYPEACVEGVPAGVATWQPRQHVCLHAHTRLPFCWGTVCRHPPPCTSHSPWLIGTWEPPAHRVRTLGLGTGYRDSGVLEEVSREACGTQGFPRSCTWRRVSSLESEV

As to `O=c1[nH]c2ccc([S+]([O-])CCN3CCC(Cc4ccc(F)cc4)CC3)cc2o1` (single isomer, unassigned; (+)) [Example 19, (+)-6-{2-[4-(4-fluorobenzyl)piperidine-1-yl]ethanesulfinyl}-3H-benzooxazol-2-one], on NR1A /2B, the IC50 came out at 0.03 µM. For the same compound, the “6-OHDA rat MED (minimum effective dose)” value in assay [1] was 1 mg/kg.

Take `O=c1[nH]c2ccc([S+]([O-])CCN3CCC(Cc4ccc(F)cc4)CC3)cc2o1` (single isomer, unassigned; (-)) [Example 20, (-)-6-{2-[4,(4-fluorobenzyl)piperidin-1-yl]ethanesulfinyl}-3H-benzooxazol-2-one]: on NR1A /2B, the IC50 turned out to be 0.03 µM. For the same compound, in assay [1], the “6-OHDA rat MED (minimum effective dose)” value turned out to be 30 mg/kg.

With `O=c1[nH]c2ccc([S+]([O-])CCN3CCC(Cc4ccc(F)cc4)CC3)cc2o1` (centres unmarked) [Example 1, 6-[2-[4-(4-Fluoro-benzyl)-piperidin-1-yl]-ethanesulfinyl]-3H-benzooxazol-2-one], the half-inhibitory concentration (IC50) was determined as 0.03 µM at NR1A /2B, 190 µM on NR1A /2C and 105 µM at NRIA /2A. The “6-OHDA rat MED (minimum effective dose)” value in assay [1] was found to be 1 mg/kg.

`O=c1[nH]c2ccc([S+]([O-])CCN3CCC(Cc4ccc(Cl)cc4)CC3)cc2o1` (centres unmarked) [Example 2, 6-{2-[4-(4-chloro-benzyl)-piperidin-1-yl]-ethanesulfinyl}-3H-benzooxazol-2-one]: the IC50 was 0.02 µM at NR1A /2B, 200 µM on NR1A /2C and greater than 300 µM on NRIA /2A. Besides, in assay [1], the “6-OHDA rat MED (minimum effective dose)” value was 3 mg/kg.

On to `Cc1ccc(CC2CCN(CC[S+]([O-])c3ccc4[nH]c(=O)oc4c3)CC2)cc1` (centres unmarked) [Example 3, 6-{2-[4-(4-methyl-benzyl)-piperidin-1-yl]-ethanesulfinyl}-3H-benzooxazol-2-one], for which the IC50 at NR1A /2B was 0.03 µM; at NRIA /2A, 100 µM. Further, the “6-OHDA rat MED (minimum effective dose)” value in assay [1] was 3 mg/kg.

As for `O=c1[nH]c2ccc([S+]([O-])CCN3CCC(Cc4ccccc4)CC3)cc2o1` (centres unmarked) [Example 4, 6-[2-(4-Benzyl-piperidin-1-yl)-ethanesulfinyl]-3H-benzooxazol-2-one], the values for the 50% inhibitory concentration (IC50) on NR1A /2B, at NR1A /2C and at NRIA /2A were 0.03 µM, greater than 300 µM and greater than 300 µM, respectively. Besides, the “6-OHDA rat MED (minimum effective dose)” value in assay [1] was 3 mg/kg.

As for `COc1ccc(CC2CCN(CC[S+]([O-])c3ccc4[nH]c(=O)oc4c3)CC2)cc1` (centres unmarked) [Example 5, 6-{2-[4-(4-methoxybenzyl)-piperidin-1-yl]-ethanesulfinyl}-3H-benzooxazol-2-one], the half-maximal inhibitory concentration (IC50) on NR1A /2B is 0.1 µM; at NR1A /2C it was 150 µM; at NRIA /2A, 55 µM. For the same compound, the “6-OHDA rat MED (minimum effective dose)” value in assay [1] was greater than 10 mg/kg.

In the case of `O=c1[nH]c2ccc([S+]([O-])CCN3CCC(Cc4ccc(Cl)c(Cl)c4)CC3)cc2o1` (centres unmarked) [Example 6, 6-{2-[4-(3,4-dichlorobenzyl)-piperidin-1-yl]-ethanesulfinyl}-3H-benzooxazol-2-one], the IC50 at NR1A /2B is 0.1 µM; on NR1A /2C, 80 µM; on NRIA /2A it was 70 µM. For the same compound, the “6-OHDA rat MED (minimum effective dose)” value in assay [1] is recorded as greater than 10 mg/kg.

In the case of `O=c1[nH]c2ccc([S+]([O-])CCN3CCC(Cc4ccccc4F)CC3)cc2o1` (centres unmarked) [Example 7, 6-{2-[4-(2-fluorobenzyl)-piperidin-1-yl]-ethanesulfinyl}-3H-benzooxazol-2-one], the IC50 on NR1A /2B is 0.09 µM; at NR1A /2C, 60 µM; at NRIA /2A, 55 µM. The “6-OHDA rat MED (minimum effective dose)” value in assay [1] was 10 mg/kg.

`O=c1[nH]c2ccc([S+]([O-])CCN3CCC(O)(Cc4ccccc4)CC3)cc2o1` (centres unmarked) [Example 8, 6-[2-(4-benzyl-4-hydroxypiperidin-1-yl)-ethanesulfinyl]-3H-benzooxazol-2-one]: the IC50 is 1.1 µM at NR1A /2B, 230 µM on NR1A /2C and 40 µM on NRIA /2A.

On to `O=c1[nH]c2ccc([S+]([O-])CCN3CCC(O)(Cc4ccc(F)cc4)CC3)cc2o1` (centres unmarked) [Example 9, 6-{2-[4-(4-fluorobenzyl)-4-hydroxy-piperidin-1-yl]-ethanesulfinyl}-3H-benzooxazol-2-one], for which the IC50 on NR1A /2B was found to be 0.9 µM; at NR1A /2C it was 200 µM; on NRIA /2A, 50 µM. The “6-OHDA rat MED (minimum effective dose)” value in assay [1] is given as greater than 10 mg/kg.

In the case of `O=C(c1ccccc1)C1CCN(CC[S+]([O-])c2ccc3[nH]c(=O)oc3c2)CC1` (centres unmarked) [Example 10, 6-[2-(4-benzoylpiperidin-1-yl)-ethanesulfinyl]-3H-benzooxazol-2-one], the IC50 on NR1A /2B was 0.34 µM; on NR1A /2C, 140 µM; on NRIA /2A it was 70 µM.

Regarding `O=c1[nH]c2ccc([S+]([O-])CCN3CCC(Cc4cccc(F)c4F)CC3)cc2o1` (centres unmarked) [Example 11, 6-{2-[4-(2,3-difluorobenzyl)-piperidin-1-yl]-ethanesulfinyl}-3H-benzooxazol-2-one], the results for the IC50 on NR1A /2B, at NR1A /2C and at NRIA /2A were 0.05 µM, 140 µM and 40 µM, respectively. In assay [1], the “6-OHDA rat MED (minimum effective dose)” value is reported as 10 mg/kg.

As for `O=c1[nH]c2ccc([S+]([O-])CCN3CCC(Cc4ccc(F)cc4F)CC3)cc2o1` (centres unmarked) [Example 12, 6-{2-[4-(2,4-difluorobenzyl)-piperidin-1-yl]-ethanesulfinyl}-3H-benzooxazol-2-one], the IC50 was 0.01 µM at NR1A /2B, 130 µM on NR1A /2C and 30 µM on NRIA /2A. Moreover, in assay [1], the “6-OHDA rat MED (minimum effective dose)” value amounted to 10 mg/kg.

In the case of `O=c1[nH]c2ccc([S+]([O-])CCN3CCC(Cc4ccc(C(F)(F)F)cc4)CC3)cc2o1` (centres unmarked) [Example 13], the IC50 at NR1A /2B stood at 0.04 µM; at NR1A /2C it was 150 µM; on NRIA /2A it was 35 µM. Besides, the “6-OHDA rat MED (minimum effective dose)” value in assay [1] is listed as 10 mg/kg.

For `O=c1[nH]c2ccc([S+]([O-])CCN3CCC(Cc4c(F)cccc4F)CC3)cc2o1` (centres unmarked) [Example 14, 6-{2-4[-(2,6-difluorobenzyl)-piperidin-1-yl]-ethanesulfinyl}-3H-benzooxazol-2-one], the IC50 was 0.04 µM at NR1A /2B, 160 µM on NR1A /2C and 55 µM on NRIA /2A. In assay [1], the “6-OHDA rat MED (minimum effective dose)” value was greater than 10 mg/kg.

Turning to `O=c1[nH]c2ccc([S+]([O-])CCN3CCC(Cc4ccc(Cl)cc4Cl)CC3)cc2o1` (centres unmarked) [Example 15, 6-{2-[4-(2,4-dichlorobenzyl)-piperidin-1-yl]-ethanesulfinyl}-3H-benzooxazol-2-one], the figures for the IC50 at NR1A /2B, on NR1A /2C and at NRIA /2A were 0.04 µM, 150 µM and 90 µM, respectively. For the same compound, the “6-OHDA rat MED (minimum effective dose)” value in assay [1] was 10 mg/kg.

As to `CC(=O)Nc1ccc(CC2CCN(CC[S+]([O-])c3ccc4[nH]c(=O)oc4c3)CC2)cc1` (centres unmarked) [Example 16, N-(4-{1-[2-(2-oxo-2,3-dihydrobenzooxazol-6-sulfinyl)ethyl]piperidin-4-ylmethyl}phenyl)acetamide], the IC50 is 10 µM at NR1A /2B, greater than 300 µM at NR1A /2C and greater than 300 µM on NRIA /2A.

With `O=c1[nH]c2cc(Cl)c([S+]([O-])CCN3CCC(Cc4ccccc4)CC3)cc2o1` (centres unmarked) [Example 17, 6-[2-(4-benzylpiperidin-1-yl)ethanesulfinyl]-5-chloro-3H-benzooxazol-2-one], the IC50 on NR1A /2B is 0.16 µM; on NR1A /2C, greater than 300 µM; on NRIA /2A, 40 µM. Besides, the “6-OHDA rat MED (minimum effective dose)” value in assay [1] is on record as greater than 10 mg/kg.
